The record followed here is patent US4492693A, “Benzothienylglycyl cephalosporin derivatives” (priority 1983, dated 1985).

Common to all, as to type: cell-based
For one assay, the system named is Strep. D. Description: Agar Dilution MIC (Table I). As to conditions: for MIC: read-out: Agar Dilution MIC. An excerpt:
A typical and preferred compound provided by this invention is 7-(3-benzothienyl)glycylamido-3-methyl-3-cephem-4-carboxylic acid, the compound illustrated in Example 9. The antibacterial activity of this compound has been determined in standard in vitro agar dilution assays against a variety of gram positive and gram negative microorganism. The following Tables present typical minimum inhibitory concentrations (MIC's) in μg/ml for several compounds of the invention when evaluated against the indicated microorganisms. MIC's for several known compounds are also presented for comparison.
Agar Dilution MIC (μg/ml)

The subject of the next assay is H. influ. Description: Agar Dilution MIC (Table I). Particulars: read-out: Agar Dilution MIC. For orientation: In agar dilution the substance is mixed into plates at graded concentrations.
The test system of a further assay is E. coli. Description: Agar Dilution MIC (Table I). As to conditions: Escherichia coli.
The test system of another assay is Bacteroides fragilis. Description: Expanded anaerobic Spectrum MIC (Table IV).
In another assay the test system is Staph. aureus. Description: Agar Dilution MIC (Table I). Particulars: Staphylococcus aureus, read-out: Agar Dilution MIC.
The subject of another assay is Strep. A. Description: Agar Dilution MIC (Table I). As to conditions: read-out: Agar Dilution MIC.
In another assay the test system is Klebsiella. Description: Agar Dilution MIC (Table I). Particulars: Klebsiella, read-out: Agar Dilution MIC.
The test system of a further assay is Haemophilus influenzae. Description: Expanded H. influenzae Spectrum MIC (Table IV).
For a further assay, the system named is Staph. epi. Description: Agar Dilution MIC (Table I). As to conditions: read-out: Agar Dilution MIC.
For a further assay, the system named is Strep. PN. Description: Agar Dilution MIC (Table I). Particulars: strain PARK.
[1] abbreviates: geometric mean over strains, read-out: MIC Geometric mean.
Setting [2] is: mean over strains, read-out: MIC mean.
Setting [3] is: geometric mean over strains, read-out: MIC Geometric Mean.

Molecules are shown by their SMILES. Converted amounts (≈) assume the structure as drawn. Read-outs that look alike come from different tables or passages of the source.

For `CC1(C)S[C@@H]2[C@H](NC(=O)[C@H](N)c3ccccc3)C(=O)N2[C@H]1C(=O)O` [Ampicillin, reference compound], the MIC came to 4 µg/mL (≈ 11.4 µM) in the assay on Strep. D (strain X66); 16 µg/mL (≈ 45.8 µM) in the assay with H. influ. (strain 76); 0.5 µg/mL (≈ 1.43 µM) with H. influ. (strain C.L.); 4 µg/mL (≈ 11.4 µM) against E. coli (strain EC14); 8 µg/mL (≈ 22.9 µM) against E. coli (strain N10).

With `CC1=C(C(=O)O)N2C(=O)[C@@H](NC(=O)[C@H](N)c3ccccc3)[C@H]2SC1` [Cephalexin], the MIC with Bacteroides fragilis (setting [1]) was 34 µg/mL (≈ 97.9 µM); with Bacteroides fragilis (setting [2]) it was 40 µg/mL (≈ 115 µM); in the assay with Bacteroides fragilis (strain 180-821, read-out: MIC), 16 µg/mL (≈ 46.1 µM); in the assay on Bacteroides fragilis (strain 10668, read-out: MIC), greater than 64 µg/mL; with Bacteroides fragilis (strain 10683, read-out: MIC), greater than 64 µg/mL; in the assay on Bacteroides fragilis (strain 10695, read-out: MIC), 64 µg/mL (≈ 184 µM). The MIC in the assay with Bacteroides fragilis (strain 10732, read-out: MIC) is 32 µg/mL (≈ 92.1 µM); in the assay on Bacteroides fragilis (strain 10750, read-out: MIC), 64 µg/mL (≈ 184 µM); with Bacteroides fragilis (strain 10774, read-out: MIC) it was greater than 64 µg/mL; in the assay on Bacteroides fragilis (strain 10817, read-out: MIC), 16 µg/mL (≈ 46.1 µM); with Bacteroides fragilis (strain 10837, read-out: MIC) it was 16 µg/mL (≈ 46.1 µM); in the assay with Bacteroides fragilis (strain 107266, read-out: MIC), 32 µg/mL (≈ 92.1 µM). Further, the MIC worked out at 16 µg/mL (≈ 46.1 µM) with Bacteroides fragilis (strain 107268, read-out: MIC); 32 µg/mL (≈ 92.1 µM) in the assay with Bacteroides fragilis (strain 108133, read-out: MIC); 128 µg/mL (≈ 368 µM) in the assay with Strep. D; 128 µg/mL (≈ 368 µM) with Staph. aureus; 4 µg/mL (≈ 11.5 µM) in the assay on Staph. aureus (strain X1.1); 0.5 µg/mL (≈ 1.44 µM) with Strep. A. Besides, the MIC stood at 4 µg/mL (≈ 11.5 µM) in the assay on E. coli (strain EC14); 128 µg/mL (≈ 368 µM) with Klebsiella; 12 µg/mL (≈ 34.5 µM) in the assay on Haemophilus influenzae (setting [3]); 22 µg/mL (≈ 63.3 µM) with Haemophilus influenzae (setting [2]); 4 µg/mL (≈ 11.5 µM) with Haemophilus influenzae (strain 105); 16 µg/mL (≈ 46.1 µM) in the assay with Haemophilus influenzae (strain 112, read-out: MIC). In addition, the “Agar Dilution MIC” value in the assay on Strep. D (strain 2041) came to 128 µg/mL.

Regarding `CC1=C(C(=O)O)N2C(=O)C(NC(=O)C(N)c3cc4ccccc4s3)C2SC1` (centres unmarked) [Compound B, 7-(2-benzothienyl)glycylamido-3-methyl-3-cephem-4-carboxylic acid], the MIC in the assay with Bacteroides fragilis (setting [1]) came out at 15 µg/mL (≈ 37.2 µM); with Bacteroides fragilis (setting [2]) it was 27 µg/mL (≈ 66.9 µM); in the assay with Bacteroides fragilis (strain 180-821, read-out: MIC), 2 µg/mL (≈ 4.96 µM); with Bacteroides fragilis (strain 10668, read-out: MIC) it was 64 µg/mL (≈ 159 µM); in the assay on Bacteroides fragilis (strain 10695, read-out: MIC) it was 16 µg/mL (≈ 39.7 µM); with Bacteroides fragilis (strain 10732, read-out: MIC) it was 4 µg/mL (≈ 9.91 µM). Moreover, the MIC in the assay on Bacteroides fragilis (strain 10750, read-out: MIC) worked out at 64 µg/mL (≈ 159 µM); in the assay with Bacteroides fragilis (strain 10774, read-out: MIC), 64 µg/mL (≈ 159 µM); in the assay on Bacteroides fragilis (strain 10817, read-out: MIC), 4 µg/mL (≈ 9.91 µM); with Bacteroides fragilis (strain 10837, read-out: MIC), 16 µg/mL (≈ 39.7 µM); in the assay with Bacteroides fragilis (strain 107266, read-out: MIC) it was 4 µg/mL (≈ 9.91 µM); in the assay with Bacteroides fragilis (strain 107268, read-out: MIC) it was 16 µg/mL (≈ 39.7 µM). Also, the MIC in the assay with Bacteroides fragilis (strain 108133, read-out: MIC) was 16 µg/mL (≈ 39.7 µM); in the assay on Haemophilus influenzae (setting [3]), 2 µg/mL (≈ 4.96 µM); with Haemophilus influenzae (setting [2]) it was 3 µg/mL (≈ 7.44 µM); with Haemophilus influenzae (strain 102) it was 16 µg/mL (≈ 39.7 µM); in the assay with Haemophilus influenzae (strain 104, read-out: MIC) it was 2 µg/mL (≈ 4.96 µM); against Haemophilus influenzae (strain 107), 4 µg/mL (≈ 9.91 µM). Moreover, the MIC in the assay on Haemophilus influenzae (strain 109, read-out: MIC) worked out at 1 µg/mL (≈ 2.48 µM); in the assay with Haemophilus influenzae (strain 110), 4 µg/mL (≈ 9.91 µM); with Haemophilus influenzae (strain 112, read-out: MIC), 8 µg/mL (≈ 19.8 µM); in the assay with Haemophilus influenzae (strain 113, read-out: MIC), 2 µg/mL (≈ 4.96 µM); in the assay with Haemophilus influenzae (strain 114, read-out: MIC), 2 µg/mL (≈ 4.96 µM).

For the compound `C=CC1=C(C(=O)O)N2C(=O)C(NC(=O)[C@H](N)c3csc4ccccc34)C2SC1` (stereo partly drawn) [Ex. 35, D-7-(3-Benzothienylglycylamido)-3-vinyl-3-cephem-4-carboxylic acid], the MIC with Staph. epi (strain 222) is 2 µg/mL (≈ 4.81 µM); with Staph. epi (strain EPI1), 8 µg/mL (≈ 19.3 µM); in the assay on Strep. D (strain 2041) it was 32 µg/mL (≈ 77 µM); in the assay with Strep. D (strain X66), 64 µg/mL (≈ 154 µM); in the assay with Staph. aureus (strain V41), 16 µg/mL (≈ 38.5 µM); in the assay with Staph. aureus (strain X1.1), 2 µg/mL (≈ 4.81 µM). The MIC stood at 32 µg/mL (≈ 77 µM) in the assay with Staph. aureus (strain X400); 1 µg/mL (≈ 2.41 µM) in the assay on H. influ. (strain 76); 8 µg/mL (≈ 19.3 µM) in the assay with H. influ. (strain C.L.); 128 µg/mL (≈ 308 µM) against E. coli (strain EC14); 128 µg/mL (≈ 308 µM) in the assay with E. coli (strain N10); 128 µg/mL (≈ 308 µM) against E. coli (strain TEM). For the same compound, the results for the MIC with Klebsiella (strain KAE), in the assay with Klebsiella (strain X26) and in the assay with Klebsiella (strain X68) were 128 µg/mL (≈ 308 µM), 8 µg/mL (≈ 19.3 µM) and 128 µg/mL (≈ 308 µM), respectively.

For `CC1=C(C(=O)O)N2C(=O)C(NC(=O)[C@H](N)c3csc4ccc(Cl)cc34)C2SC1` (stereo partly drawn) [Ex. 38B, D-7-(5-chloro-3-benzothienyl)glycylamido-3-methyl-3-cephem-4-carboxylic acid], the MIC in the assay with Strep. PN turned out to be 0.25 µg/mL (≈ 0.571 µM); in the assay on Staph. epi (strain 222) it was 2 µg/mL (≈ 4.57 µM); with Staph. epi (strain EPI1), 4 µg/mL (≈ 9.13 µM); in the assay with Strep. D (strain 2041), 32 µg/mL (≈ 73.1 µM); with Strep. D (strain X66), 64 µg/mL (≈ 146 µM); with Staph. aureus (strain V41), 4 µg/mL (≈ 9.13 µM). The MIC in the assay with Staph. aureus (strain X1.1) is 1 µg/mL (≈ 2.28 µM); with Staph. aureus (strain X400), 8 µg/mL (≈ 18.3 µM); in the assay on Strep. A (strain C203), 0.25 µg/mL (≈ 0.571 µM); against E. coli (strain EC14), 64 µg/mL (≈ 146 µM); with E. coli (strain N10) it was 64 µg/mL (≈ 146 µM); in the assay on E. coli (strain TEM) it was 64 µg/mL (≈ 146 µM). Also, the figures for the MIC with Klebsiella (strain KAE), in the assay with Klebsiella (strain X26) and in the assay with Klebsiella (strain X68) were 64 µg/mL (≈ 146 µM), 2 µg/mL (≈ 4.57 µM) and 64 µg/mL (≈ 146 µM), respectively.
